Laboratory results from patent US20240398980A1, “NUCLEIC ACID-CONJUGATED POLYMERIC NANOPARTICLES AND METHODS OF USE” (The Brigham and Women's Hospital, Inc., priority 2021, published 2024).

How the values were obtained:
[1] = system: interferon regulatory factor (IRF)3 activity; experiment: IRF3 reporter activity in THP-1 Dual cells (QUANTI-Luc); format: cell-based, Human; conditions: for IRF and NF-kB activation compared with 2.3cGAMP: THP-1 reporter cell line, FIG. 30
Method: (§1) In vitro evaluation of CDN-NP activity: Human monocyte THP-1 Dual™ cells, THP-1 Dual™ KO-STING cells, RAW-Lucia™ ISG cells and RAW-Lucia™ ISG KO-STING cells were seeded in 96-well plates at 1×10^5 cells per well and incubated with the CDN-NP or free CDN at CDN concentrations ranging from 0-500 nM. At 24 h post treatment, interferon regulatory factor (IRF)3 activity was examined using the QUANTI-Luc™ reagent (InvivoGen) and NF-κB activity (only THP-1 Dual™ cells) was determined using the QUANTI-Blue™ reagent (InvivoGen) according to the manufacturer's instructions.

IRF response = experiment: IRF reporter response in RAW-Lucia ISG cells; format: cell-based, murine
Method: as §1

[2] = Pharmacokinetics in plasma after i.v. administration (LC-MS-MS and fluorescence); format: in vivo, C57BL/6 mice; conditions: 15 min after i.v.
Method: Pharmacokinetics of CDN-NPs: Non-tumor bearing 6-8-week-old female C57BL/6 mice were injected i.v. (100 μL per mouse) with fluorescent CDN-NPs and whole blood was collected 0.25, 0.5, 1, 3, 6, and 24 h post injection in Eppendorf tubes containing heparin though submandibular bleed (for early time points) or cardiac puncture (for late time points). Plasma was obtained by centrifugation for 20 mins at 10000×g. Fluorescent CDN-NPs were quantified using a 640 nm excitation and 680 emission wavelength by plate reader and CDN was also quantified by LC-MS/MS.

[3] = system: bone-marrow derived macrophages (BMDMs); experiment: Primary immune cell activation, flow cytometry; format: cell-based, C57BL/6 mice
Method: BMDC and BMDM isolation: The tibias and femurs of female wild type or goldenticket C57BL/6 mice (aged 8-12 weeks) were isolated and flushed to harvest bone marrow and to obtain a progenitor cell population. To generate BMDMs, 4-6×10^6 bone marrow cells were cultured in non-tissue culture treated T175 flasks with 25 mL of DMEM/F12 supplemented with 10% (v/v) FBS, 1% (v/v) P/S, 5% (v/v) GlutaMAX and recombinant murine macrophage-colony-stimulating factor (M-CSF, 20 ng/mL). The flasks were supplemented with additional medium on day 3 and day 6. To generate BMDCs, 2×10^6 bone marrow cells were added to non-tissue culture-treated petri dishes and cultured in 10 mL of RPMI-1640 supplemented with 10% (v/v) FBS, 1% (v/v) and recombinant murine granulocyte-macrophage colony-stimulating factor (GM-CSF, 20 ng/mL), 10 mL more of which was added on day 3. […]
Assessment of primary immune cell activation: BMDCs or BMDMs were seeded in 24-well plates at 2×10^5 cells per well and incubated with the CDN-NP or free CDN at equal CDN concentrations ranging from 1-100 nM. […] After 24 hours, the supernatant was removed and cells were then collected, washed, stained, fixed, and analyzed by flow cytometry. […] In addition, IFN-0, IL-6, and TNF-α were analyzed from the supernatant using a custom Legendplex™ panel (BioLegend) as per the manufacturer's instructions.

[4] = system: immune cell populations in the TME, tdLN, and spleen; experiment: Immunophenotyping by flow cytometry in B16-F10 tumor-bearing mice; format: in vivo, C57BL6/J mice
Method: Immunophenotyping analysis: Subcutaneous B16-F10 tumors were established in female C57BL6/J mice (6-8 weeks old), as previously described. The treatment groups were: PBS (untreated control), aPD-1 mAb, free CDN, free CDN with aPD-1 mAb, CDN-NPs, and CDN NPs with aPD-1 mAb. CDN formulations (free drug or NP, 0.5 μg CDN) were administered intravenously and aPD-1 mAb (100 μg) was administered intraperitoneally 24 h after CDN treatment. Dendritic cells and macrophages were assessed 48 h after treatment and T cells were analyzed 7 days post-treatment. Tumors were harvested, chopped, and digested in a solution of HBSS supplemented with collagenase I, II, and IV (100 ng/mL) and DNase I […] for 2 h at 37° C. TdLNs and spleens were harvested and mechanically dissociated. Single cell suspensions of tumors, tdLNs, and spleens were filtered through a 40 µm nylon cell strainer. Spleen and tumor cells were further treated with ACK Lysing Buffer (Gibco). Cells were washed, filtered through a 40 μm nylon cell strainer, and counted. For intracellular IFN-γ cytokine analysis, 1×10^6 cells were seeded in a 24-well plate in DMEM containing 10% (v/v) FBS and supplemented with PMA/ionomycin/Brefeldin A cocktail (BioLegend). After 4 h, the cells were washed and stained in 100 μL cell staining buffer (BioLegend). Intracellular staining was performed using an intracellular staining permeabilization wash buffer (BioLegend) The following anti-mouse antibodies were used for flow cytometry were purchased from BioLegend: CD45 APC-Cy7 (clone 30-F11), NK-1.1 BV710 (clone PK136), IFN-γ BV421 (clone XMG1.2), CD279 (PD-1) FITC (clone 29F.1A12), CD45 BV785 (clone 30-F11), CD11b BV421 (clone M1/70), Ly-6C APC-Cy7 (clone HK1.4), Ly-6G BV661 (clone 1A8), CD8a BV421 (clone 53-6.7), CD86 BV510 (clone GL-1), CD80 BV711 (clone 16-10A1), CD206 PE (clone C068C2), MHCII BV605 (clone M5/114.15.2), CD11c APC (clone N418), Siglec H PE (clone 551), and CD44 BV786 (clone IM7).
The following anti-mouse antibodies were purchased from BD Biosciences: CD3 BB700 (clone 17A2), CD4 BUV395 (clone GK1.5), CD8a BUV737 (clone 53-6.7), F4/80 BUV395 (clone T45-2342), CD103 BUV395 (clone M290), CD80 BUV737 (clone 16-10A1), ki67 BV510 (clone B56), CD69 BV605 (clone H1.2F3), and CD62L PE-CF594 (clone MEL-14). Live cells were gated using LIVE/DEAD™ (Thermo Fisher) aqua (cat. no. L34966), green (cat. no. L34970), or near-IR (cat. no. L34976). Stained cells were analyzed by flow cytometry using a BD LSRFortessa™ flow cytometer (BD Biosciences) and all data were analyzed using FlowJo software (FlowJo LLC).

B16-F10 tumors = experiment: In vivo therapeutic efficacy, B16-F10 melanoma; set-up: species or system mice; conditions: B16-F10, 0.5 μg CDN i.v. x3, 4 d apart
Method: In vivo therapeutic efficacy: B16-F10, 4T1, and CT-26 cells were injected subcutaneously into the right flank of 6-8-week-old female mice (of the appropriate background for the cell type) in 100 μL HBSS at densities of 5×10^5, 1×10^6, and 1×10^6 cells/injection, respectively. Approximately 7 days post tumor inoculation (˜50 mm^3), mice were subjected to intravenous injection (100 μL) of free CDN or CDN-NP at a CDN dose of 0.5 μg. Mice were injected 3 times with treatments spaced 4 d apart. Groups receiving checkpoint blockade were injected intraperitoneally 24 h post systemic administration with 100 μg anti-PD-1 (clone RMP1.14, Bio X Cell). The tumor size was measured every other day via caliper measurements and the tumor volume calculated using the equation V=L×W×H×(π/6). Body weight was measured contemporaneously with tumor volume.

[5] = tdLN, 7 d after single treatment

Structure (SMILES)	IRF and NF-kB activation compared with 2.3cGAMP [1]	EC50 ([1]; THP-1 Dual cells, 24 h, read-out: EC50 IRF3 activation) [nM]	EC50 (IRF response) [nM]	CDN (nM) in plasma [2] [nM]	CDN (nM) in plasma ([2]; listed as free CDNs) [nM]	dose required to achieve the same degree of CD86 upregulation (15-fold) [3] [nM]	CD86 expression on DCs in the spleen ([4]; 48 h after i.v., B16-F10) [%]	proportion of CD4+ T cells secreting IFN-γ in the TME ([4]; 7 d, ex vivo restimulation) [%]	proportion of CD8+ T cells secreting IFN-γ in the TME ([4]; 7 d, ex vivo restimulation) [%]	CD4+ central memory T cells (TCM) [4, 5] [%]	CD4+ effector memory T cells (TEM) [4, 5] [%]	tumor growth and survival (B16-F10 tumors)
CC(C)[C@H](NC(=O)CCCCCN1C(=O)C=CC1=O)C(=O)N[C@@H](C)C(=O)Nc1ccc(COC(=O)N(C)Cc2ccccc2C(=O)Nc2nc3c(ncn3[C@@H]3O[C@@H]4CO[P@@](=O)(S)O[C@H]5C[C@H](Oc6ccncn6)C[C@@H]5CO[P@@](=O)(S)O[C@@H]3[C@@H]4O)c(=O)[nH]2)cc1 [CDN-linker, 4-{[(2S)-2-{[(2S)-2-{[6-(2,5-Dioxo-2,5-dihydro-1H-pyrrol-1 yl)hexanoyl]amino}-3-methylbutanoyl]amino}propanoyl]amino}benzyl [2-({9[(2R,5R,7R,8R,10R,12aR,14R,15aS,16R)-16-hydroxy-2,10-dioxido-14-(pyrimidin-4-yloxy)-2,10-disulfanyldecahydro-5,8-methanocyclopenta[1][1,3,6,9,11,2,10]Pentaoxadiphosphacyclotetradecin-7-yl]-6-oxo-6,9-dihydro-1H-purin-2-yl}carbamoyl)benzyl]methylcarbamate]	higher IRF and NF-kB activation than 2.3cGAMP	–	–	–	–	–	–	–	–	–	–	–
Nc1nc2c(ncn2[C@@H]2O[C@@H]3CO[P@@](=O)(S)O[C@H]4C[C@H](Oc5ccncn5)C[C@@H]4CO[P@@](=O)(S)O[C@@H]2[C@@H]3O)c(=O)[nH]1 [free CDN, 2-Amino-9-[(2R,5R,7R,8R,10R,12aR,14R,15aS,16R)-16-hydroxy-2,10-dioxido 14-(pyrimidin-4-yloxy)-2,10-disulfanyldecahydro-5,8 methanocyclopenta[1][1,3,6,9,11,2,10]pentaoxadiphosphacyclotetradecin-7-yl]-1,9-dihydro-6H-purin-6-one]	higher IRF and NF-kB activation than 2.3cGAMP	1150	> 1000	<5	< 5	100	8.4±1.3	4.0±1.0	15.7±3.5	6.2±0.4	5.3±0.8	only a modest suppression of tumor growth and no increase in survival
